Here are results for two substances from ChEMBL document CHEMBL3045431, “Stability of DNA upon interaction with dimethyltin dichloride” (Med Chem Res, 2007).

Active and inactive are the calls of the source. The rule behind the calls is not given here.

Assay [1] is described as follows: Binding affinity to DNA assessed as dissociation constant at < 2 mM by isothermal spectrophotometric titration method.
A short description of assay [2]: Binding affinity to DNA assessed as association constant at < 2 mM by isothermal spectrophotometric titration method.
Assay [3] has as its system DNA. In words: Thermal stabilization of Bos taurus (calf) thymus DNA assessed as change in melting temperature at 13.6 mM by differential scanning calometric method. The class given is nucleic-acid assay.
Assay [4] has as its system DNA. Briefly: Thermal stabilization of Bos taurus (calf) thymus DNA assessed as change in melting temperature at 2 mM by differential scanning calometric method. The class given is nucleic-acid assay.
In assay [5] the test system is DNA. Briefly: Binding affinity to Bos taurus (calf) thymus DNA at 13.6 mM by isothermal spectrophotometric titration method. The class given is nucleic-acid assay.
Assay [6] deals with DNA. In words: Binding affinity to Bos taurus (calf) thymus DNA at 11 mM by isothermal spectrophotometric titration method. The class given is nucleic-acid assay.
The subject of assay [7] is DNA. In words: Binding affinity to Bos taurus (calf) thymus DNA at 9 mM by isothermal spectrophotometric titration method. The class given is nucleic-acid assay.
Assay [8] relates to DNA. Briefly: Binding affinity to Bos taurus (calf) thymus DNA at 0.5 mM by isothermal spectrophotometric titration method. The class given is nucleic-acid assay.
Assay [9] deals with DNA. In words: Binding affinity to Bos taurus (calf) thymus DNA at 2 mM by isothermal spectrophotometric titration method. The assay is classed as nucleic-acid assay.

Usually Kd stands for the free concentration of one partner at which half of the binding sites on the other are occupied at equilibrium, for simple one-to-one binding. DICHLORODIMETHYLSTANNANE: the Kd in [1] turned out to be 281 µM.
In the case of [sequence], the Ka in [2] stood at 3.56 ×10³ /M. Moreover, the Tm in [3] turned out to be 70.2 °C. In [4], the outcome was Active. Further, the K in [5] came to 0.143 ×10³ /M; in assay [6] it was 0.125 ×10³ /M; in [7] it was 0.123 ×10³ /M; in [8], 3.59 ×10³ /M; in assay [9], 3.53 ×10³ /M.
